Measurements from US20230116703A1, “NOVEL ERGOLINES AND METHODS OF TREATING MOOD DISORDERS” (priority 2021, published 2023).
pEC50, pKi: −log10 of the molar value. Like-named read-outs stand apart in the source and are kept apart here.

Legend:
[1] = biological target: T1, 5-HT2A receptor (Homo sapiens, UniProt P28223); assay: cell-based; type: cell-based
T1 construct: host or cells: HEK293
Description: (§1) Functional Assays at 5-HT2A, 5-HT2B, and 5-HT1A. Agonist activity at 5-HT2A, 5-HT2B, and 5-HT1A receptors was determined using a FLIPR Ca^2+ flux assay at WuXi AppTec (Hong Kong) Limited according to their standard protocols. Briefly, stably transfected cells expressing the receptor of interest (HEK293 for 5-HT2A and 5-HT2B; CHO cells for 5-HT1A) were grown and plated in a 384 well plate and incubated at 37° C. and 5% CO2 overnight. A solution of 250 mM probenecid in 1 mL FLIPR assay buffer was prepared fresh. This was combined with a fluorescent dye (Fluo-4 Direct™) to make a final assay concentration of 2.5 mM. […] The fluorescent dye was then added to the assay plate along with assay buffer to a final volume of 40 μL. The cell plate was incubated for 50 min at 37° C. and 5% CO2 and placed into the FLIPR Tetra along with the compound plate. 10 μL of references and compounds were then transferred from the compound plate into the cell plate and the fluorescent signal was read.

[2] = biological target: T2, 5-HT1A receptor (Homo sapiens, UniProt P08908); assay: cell-based
T2 construct: host or cells: CHO cells
T2 sequence (P08908 1-422): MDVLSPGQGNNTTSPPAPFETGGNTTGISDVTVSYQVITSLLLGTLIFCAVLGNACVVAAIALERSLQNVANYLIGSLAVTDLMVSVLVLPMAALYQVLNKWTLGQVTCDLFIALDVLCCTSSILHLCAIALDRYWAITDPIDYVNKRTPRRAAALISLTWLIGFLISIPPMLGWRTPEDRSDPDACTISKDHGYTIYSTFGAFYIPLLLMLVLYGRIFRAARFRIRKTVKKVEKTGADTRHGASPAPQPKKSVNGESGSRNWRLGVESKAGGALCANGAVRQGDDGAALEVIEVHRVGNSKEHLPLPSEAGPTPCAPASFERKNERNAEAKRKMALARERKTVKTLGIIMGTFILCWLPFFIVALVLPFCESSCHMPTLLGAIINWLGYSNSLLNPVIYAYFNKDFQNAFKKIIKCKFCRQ
Description: as §1

[3] = biological target: T3, 5-HT2B receptor (Homo sapiens, UniProt P41595); assay: cell-based
T3 construct: host or cells: HEK293
Description: as §1

[4] = biological target: 5-HT1B receptor (Homo sapiens, UniProt P28222); assay: cAMP accumulation agonist assay at 5-HT1B; type: cell-based
Description: Disclosed compounds were tested for agonist activity at several serotonin receptor subtypes (5-HT2A, […], 5-HT2C, and 5-HT1A) using Ca^2+ flux functional assays and the 5-HT1B receptor using a cAMP accumulation assay, with the results summarized in Table 4. […] Potent agonist activity was also observed at the other serotonin receptors tested, although the selectivity profile among the receptors varied across compounds. […]. However, at the same time, the N-propyl compounds were more efficacious agonists at 5-HT2B than the corresponding N-methyl compounds. The selectivity of disclosed compounds for 5-HT2A over 5-HT2C and 5-HT1A was less predictable and varied widely across compounds, ranging from ˜1:6 to ˜20:1 (2C/2A) in the case of 5-HT2C and from ˜1:4 to >100:1 (1A/2A) in the case of 5-HT1A. […] An azetidinyl amide substituent tended to increase potency at 5-HT1A relative to 5-HT2A.
Functional Assay at 5-HT1B. Agonist activity at 5-HT1B was determined using a cAMP accumulation protocol at WuXi AppTec (Hong Kong) Limited according to their standard protocols. Briefly, stably transfected cells were plated in an OptiPlate-384 well plate, incubated at RT for 60 mins, and cAMP standard solution (800 nM, 10 μL) was added to the blank well. Then, 10 μL detection reagent was added to each well, the plate incubated for 60 mins at RT, and the plate read using EnVision.

[5] = Metabolic stability in human liver microsomes (HLM); type: in vitro ADME; conditions: both sexes, human, pH 7.4, 0.50 mg protein per mL
Description: HLM Stability. Pooled HLM from adult male and female donors (Corning 452117) were used.

[6] = biological target: T1, 5-HT2A receptor; assay: biochemical; type: binding; conditions: for Ki: 1 nM [^3H]ketanserin, HEK293 stable cell line, read-out: 5-HT2A Receptor Ki (nM) ([^3H]ketanserin); for 5-HT2A receptor binding affinity / potency (in words): radioligand binding
Description: Affinity of the test compounds for the 5-HT2A receptor was determined in radioligand binding experiments with [^3H]ketanserin by WuXi AppTec (Hong Kong) Limited, using methods adapted from the literature and under conditions described in Table 1.

[7] = Ca^2+ flux, agonist, read-out: 5-HT2A EC50
[8] = Ca^2+ flux, agonist, read-out: 5-HT1A EC50
[9] = Ca^2+ flux, agonist, read-out: 5-HT2B EC50
[10] = cAMP, agonist, read-out: 5-HT1B EC50

T3 sequence (P41595 whole entry): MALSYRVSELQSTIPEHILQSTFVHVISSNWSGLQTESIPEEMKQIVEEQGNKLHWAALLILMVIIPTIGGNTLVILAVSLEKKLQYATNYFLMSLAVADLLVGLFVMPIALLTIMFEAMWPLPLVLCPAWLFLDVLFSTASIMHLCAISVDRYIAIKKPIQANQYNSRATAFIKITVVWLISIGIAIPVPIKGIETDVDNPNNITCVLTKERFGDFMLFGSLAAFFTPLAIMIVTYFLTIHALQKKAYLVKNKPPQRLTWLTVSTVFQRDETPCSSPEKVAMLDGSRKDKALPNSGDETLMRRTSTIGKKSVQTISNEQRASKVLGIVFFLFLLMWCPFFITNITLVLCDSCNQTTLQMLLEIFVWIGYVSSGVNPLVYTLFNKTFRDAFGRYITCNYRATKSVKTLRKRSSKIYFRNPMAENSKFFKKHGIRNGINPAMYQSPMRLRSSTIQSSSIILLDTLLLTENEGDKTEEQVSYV
T1 sequence (P28223 whole entry): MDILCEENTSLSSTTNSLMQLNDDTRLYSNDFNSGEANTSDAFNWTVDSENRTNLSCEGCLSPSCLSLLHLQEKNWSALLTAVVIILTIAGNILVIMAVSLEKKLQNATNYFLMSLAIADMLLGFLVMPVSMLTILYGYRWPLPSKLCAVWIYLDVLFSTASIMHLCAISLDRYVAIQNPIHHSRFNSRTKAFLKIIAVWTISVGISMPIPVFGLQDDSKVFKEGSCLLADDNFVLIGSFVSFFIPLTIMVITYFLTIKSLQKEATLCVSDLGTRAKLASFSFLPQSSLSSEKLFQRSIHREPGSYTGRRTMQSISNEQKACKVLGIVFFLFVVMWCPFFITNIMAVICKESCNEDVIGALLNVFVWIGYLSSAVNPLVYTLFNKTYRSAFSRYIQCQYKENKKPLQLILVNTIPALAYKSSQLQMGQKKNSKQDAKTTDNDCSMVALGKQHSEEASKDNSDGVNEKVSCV
5-HT1B receptor, sequence (P28222 whole entry): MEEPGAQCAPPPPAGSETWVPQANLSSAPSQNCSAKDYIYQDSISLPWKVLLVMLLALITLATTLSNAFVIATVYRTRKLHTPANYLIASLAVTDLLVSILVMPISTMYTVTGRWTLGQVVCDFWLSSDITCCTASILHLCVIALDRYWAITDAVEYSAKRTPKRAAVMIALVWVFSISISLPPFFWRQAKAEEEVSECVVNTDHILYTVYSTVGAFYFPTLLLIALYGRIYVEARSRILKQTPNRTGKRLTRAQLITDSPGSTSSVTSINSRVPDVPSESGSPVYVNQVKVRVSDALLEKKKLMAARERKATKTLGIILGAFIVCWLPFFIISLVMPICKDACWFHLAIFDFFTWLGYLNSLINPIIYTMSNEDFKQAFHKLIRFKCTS

| Structure (SMILES) | 5-HT2A % Act @ Max Dose ([1]; Ca^2+ flux, agonist) | pEC50 [1, 7] | 5-HT1A % Act @ Max Dose ([2]; Ca^2+ flux, agonist) | pEC50 [2, 8] | 5-HT2B % Act @ Max Dose ([3]; Ca^2+ flux, agonist) | pEC50 [3, 9] | 5-HT1B % Act @ Max Dose ([4]; cAMP, agonist) | pEC50 [4, 10] | half-life at 1 μM ([5]; pooled human liver microsomes) | microsomal CLint at 1 μM ([5]; pooled human liver microsomes) | Ki [6] | 5-HT2A receptor binding affinity / potency (in words) [6] | pEC50 [1] | pEC50 [2] | pEC50 [3] | pEC50 [4] | half-life at 1 μM ([5]; microsomes) | microsomal CLint at 1 μM ([5]; microsomes) | pKi [6] |
| --- | --- | --- | --- | --- | --- | --- | --- | --- | --- | --- | --- | --- | --- | --- | --- | --- | --- | --- | --- |
| CCCN1C[C@H](C(=O)N(CC)CC)C=C2c3cccc4c3C(CN4)C[C@H]21 (mixture of isomers) [Compound 36, (6aR,9R)—N,N-diethyl-7-propyl-4,5,5a,6,6a,7,8,9-octahydroindolo[4,3-fg]quinoline-9-carboxamide] | 77.54% | 7.30 | 88.68% | 8.32 | 110.53% | 6.20 | 97.51% | 7.64 | 32.8 min | 42.2 µL/min/mg | 10.7 nM | reduced in potency |  |  |  |  |  |  |  |
| CCN(CC)C(=O)[C@@H]1C=C2c3cccc4c3C(CN4)C[C@H]2N(C)C1 (mixture of isomers) [Compound 37, (6aR,9R)—N,N-diethyl-7-methyl-4,5,5a,6,6a,7,8,9-octahydroindolo[4,3-fg]quinoline-9-carboxamide] | 76.37% | 7.12 | 108.98% | 7.76 | 24.06% | 6.33 | 90.74% | 7.71 | > 145 min | < 9.6 µL/min/mg | 11.4 nM | reduced in potency |  |  |  |  |  |  |  |
| CCCN1C[C@H](C(=O)N(CC)CC)C=C2c3cccc4[nH]c(Br)c(c34)C[C@H]21 [Compound 9, (6aR,9R)-5-bromo-N,N-diethyl-7-propyl-4,6,6a,7,8,9-hexahydroindolo[4,3-fg]quinoline-9-carboxamide] | 75.81% | 6.64 | 101.39% | 7.02 | 89.6% | 6.40 | 81.46% | 6.58 | 9.9 min | 140 µL/min/mg | 1.11 nM |  |  |  |  |  |  |  |  |
| C[C@H]1C[C@H](C)N1C(=O)[C@@H]1C=C2c3cccc4[nH]cc(c34)C[C@H]2N(CCCF)C1 [Compound 26, ((2S,4S)-2,4-dimethylazetidin-1-yl)((6aR,9R)-7-(3-fluoropropyl)-4,6,6a,7,8,9-hexahydroindolo[4,3-fg]quinolin-9-yl)methanone] | 83.23% | 7.81 | 97.94% | 8.44 | 100.66% | 6.37 | 77.16% | 6.13 | 20.5 min | 67.7 µL/min/mg | 11.3 nM |  |  |  |  |  |  |  |  |
| C=CCN1C[C@H](C(=O)N2[C@@H](C)C[C@@H]2C)C=C2c3cccc4[nH]cc(c34)C[C@H]21 [Compound 27, ((6aR,9R)-7-allyl-4,6,6a,7,8,9-hexahydroindolo[4,3-fg]quinolin-9-yl)((2S,4S)-2,4-dimethylazetidin-1-yl)methanone] | 81.1% | 7.92 | 90.8% | 8.53 | 96.0% | 6.45 | 96.92% | 7.05 | 16.1 min | 86.1 µL/min/mg | 8.96 nM |  |  |  |  |  |  |  |  |
| CCN(CC)C(=O)[C@@H]1C=C2c3cccc4[nH]c(Br)c(c34)C[C@H]2N(C)C1 [Compound 35, (6aR,9R)-5-bromo-N,N-diethyl-7-methyl-4,6,6a,7,8,9-hexahydroindolo[4,3-fg]quinoline-9-carboxamide] | 67.74% |  | −1.58% |  | −0.13% |  | 76.8% |  |  |  |  |  | 7.18 | < 5.50 | < 5.00 | 6.67 | 24.2 min | 57.4 µL/min/mg | 9.14 |
| CN1C[C@H](C(=O)N(CCF)CCF)C=C2c3cccc4[nH]cc(c34)C[C@H]21 [Compound 38, (6aR,9R)—N,N-bis(2-fluoroethyl)-7-methyl-4,6,6a,7,8,9-hexahydroindolo[4,3-fg]quinoline-9-carboxamide] | 93.39% | 7.93 | 90.5% | 8.46 | 28.13% | 7.65 | 94.72% | 8.33 | 64 min | 21.6 µL/min/mg | 0.84 nM |  |  |  |  |  |  |  |  |
| CCN(CC)C(=O)[C@@H]1C=C2c3cccc4[nH]cc(c34)C[C@H]2N(CCF)C1 [Compound 39, (6aR,9R)—N,N-diethyl-7-(2-fluoroethyl)-4,6,6a,7,8,9-hexahydroindolo[4,3-fg]quinoline-9-carboxamide] | 95.52% | 7.79 | 91.21% | 6.62 | 85.46% | 6.86 | 99.00% | 5.96 | 31.7 min | 43.8 µL/min/mg | 4.54 nM |  |  |  |  |  |  |  |  |
